Consider one compound from patent US10179770B2, “Quinolines derivatives as novel anticancer agents” (GENOSCIENCE PHARMA, priority 2013, dated 2019).

For test [1], the system named is BxPC-3. As to the kind of experiment: Cell viability assay, pancreatic cancer cell lines. Format: cell-based. As to conditions: Homo sapiens; BxPC-3 (Pancreas); 48 h. Here is the method: (§1) MiaPaCa-2, Panc-1 cells were grown in Dulbecco's modified eagle's medium (DMEM) (Gibco) supplemented with 10% fetal bovine serum (FBS), while BxPC-3, Capan-1, Capan-2 cells were grown in Roswell Park Memorial Institute 1640 (RPMI 1640) (Gibco) supplemented with 10% FBS. Gemcitabine (Gemzar) was purchased from Lilly France S.A.S (Suresnes, France). (3-(4,5-dimethylthiazol-2-yl)-2,5diphenyltetrazolium bromide, MTT) was purchased from Sigma-Aldrich.
(§2) BxPC-3, MiaPaCa-2, Panc-1 cells were seeded into a 96-well plate at 10,000 10,000 15,000 cells per well respectively, while Capan-1 and Capan-2 cells at 20,000 cells per well and allowed to adhere overnight. Then the culture medium was removed and replaced with fresh media alone as control or containing various concentrations of different compounds. In dose-dependent assay, the cells were treated with compound XIX-3 at the concentration varying from 0.1 μM to 100 μM while the cells being cultured by fresh media alone were used as control. After 48 h treatment, the number of remained viable cells was determined by (3-(4,5-dimethylthiazol-2-yl)-2,5diphenyltetrazolium bromide, MTT) colorimetric assay (see Sigma Aldrich protocol and Riss T. L. et al. Cell Viability Assays in Assay Guidance Manual 2013 ppl.). All experiments were done in duplicate and repeated two independent times.

Test [2] concerns Capan-1. The test is described as follows: Cell viability assay, pancreatic cancer cell lines. Type of test: cell-based. To be noted: Homo sapiens; Capan-1 (Pancreas); 48 h. Here is the method:
as §1, §2

For test [3], the system named is Capan-2. The test is described as follows: Cell viability assay, pancreatic cancer cell lines. Type of test: cell-based. To be noted: Homo sapiens; Capan-2 (Pancreas); 48 h. The method, then: as §1, §2
Test [4] relates to MIA PaCa-2. The test is described as follows: Cell viability assay, pancreatic cancer cell lines. Type of test: cell-based. As to conditions: Homo sapiens; MIA PaCa-2 (Pancreas); 48 h. Here is the method: as §1, §2
Test [5] deals with Panc-1. The test is described as follows: Cell viability assay, pancreatic cancer cell lines. As to conditions: Homo sapiens; Panc-1 (Pancreas); 48 h. Format: cell-based. The method, then: as §1, §2
Test [6] has as its system HL60. As to the kind of experiment: CellTiter-Glo cell viability assay (example 57). Format: cell-based. As to conditions: Homo sapiens, HL-60; HL60 (Leukemia); Cell Titer-Glo; 72 h. Here is the method: (§3) The human breast cancer cell line SkBr3 and the human metastatic prostate carcinoma cell line LnCAP were cultured in Dulbecco's modified Eagle's medium (DMEM) supplemented with 10% fetal bovine serum (FBS) and 0.1% sodium pyruvate. The human myelocytic cell line U937 and NB4 were maintained in RPMI medium 1640 1× (Gibco 21875-034) supplemented with 10 % Fetal Bovine Serum (FBS, Eurobio S39130-0808) Kasumi and SKM-1 were maintained in RPMI medium 1640 1× (Gibco 21875-034) supplemented with 20 % Fetal Bovine Serum (FBS, Eurobio S39130-0808), HL60 was maintained in Iscove's modified Dulbecco's medium 1× (IMDM, Gibco 21890) supplemented with 20% Fetal Bovine Serum (FBS, Eurobio S39130-0808), cell line was maintained in MEM alpha medium (Gibco 22561-021) supplemented with 10% FBS at 37° C. with 5% CO2. Cell outgrowth was measured using the CellTiter-Glo luminescent cell viability assay as described by the manufacturer (Promega, Ref G7571 Madison, Wis., USA) using a FLUOstar optima luminometer (BMG Labtech, Ortenberg, Germany).
(§4) Briefly, for adherent cells, 10^4 cells were plated onto 96-well plates (white with clear bottom (3610, Corning Costar) in 100 μL of media per well and were allowed to grow overnight before the assay. For cells growing in suspension, 10^4 cells were plated onto 96-well plates immediately before the assay. […] Vehicle (DMSO) was used as a control, and all compounds were tested in a constant percentage of DMSO (1%). After addition of 50 μL of CellTiter GLO, luminescence was measured using a Centro luminometer (Berthold). EC50 values were determined as the dose of compound required to reduce luminescent values to 50% of the signal obtained for untreated cell cultures. All experiments were done in duplicate and repeated two independent times.
A general note: Cellular ATP, detected with luciferase, serves as a proxy for viable cell number.

The test system of test [7] is HepG2. The test is described as follows: CellTiter-Glo cell viability assay (example 57). To be noted: Homo sapiens; HepG2 (Liver); Cell Titer-Glo; 72 h. Format: cell-based. Here is the method:
as §3, §4

In test [8] the test system is KG-1. As to the kind of experiment: CellTiter-Glo cell viability assay (example 57). Format: cell-based. To be noted: Homo sapiens; KG-1 (Leukemia); Cell Titer-Glo; 72 h. The method, then:
as §3, §4

In test [9] the test system is Kasumi-1. As to the kind of experiment: CellTiter-Glo cell viability assay (example 57). To be noted: Homo sapiens; Kasumi-1 (Leukemia); Cell Titer-Glo; 72 h. Type of test: cell-based. The method, then:
as §3, §4

Test [10] deals with LNCaP. The test is described as follows: CellTiter-Glo cell viability assay (example 57). Format: cell-based. To be noted: Homo sapiens; LNCaP (Prostate); Cell Titer-Glo; 72 h. The method, then: as §3, §4
In test [11] the test system is MOLM-14. As to the kind of experiment: CellTiter-Glo cell viability assay (example 57). Format: cell-based. To be noted: Homo sapiens; MOLM-14 (Leukemia); Cell Titer-Glo; 72 h. The method, then:
as §3, §4

The subject of test [12] is NB4. As to the kind of experiment: CellTiter-Glo cell viability assay (example 57). Type of test: cell-based. As to conditions: Homo sapiens, NB-4; NB4 (Leukemia); Cell Titer-Glo; 72 h. Here is the method: as §3, §4
The subject of test [13] is SKM-1. The test is described as follows: CellTiter-Glo cell viability assay (example 57). Format: cell-based. As to conditions: Homo sapiens; SKM-1 (Leukemia); Cell Titer-Glo; 72 h. Here is the method: as §3, §4
The subject of test [14] is SkBr3. As to the kind of experiment: CellTiter-Glo cell viability assay (example 57). Format: cell-based. As to conditions: Homo sapiens, SK-BR-3; SkBr3 (Breast); Cell Titer-Glo; 72 h. The method, then: as §3, §4
The subject of test [15] is U937. As to the kind of experiment: CellTiter-Glo cell viability assay (example 57). Type of test: cell-based. To be noted: Homo sapiens, U-937; U937 (Leukemia); Cell Titer-Glo; 72 h. The method, then:
as §3, §4

The subject of test [16] is HT29. The test is described as follows: CellTiter-Glo cell viability assay (example 57). Type of test: cell-based. To be noted: Homo sapiens, HT-29; HT29 (Colon); Cell Titer-Glo; 72 h.
The test system of test [17] is B16F10. As to the kind of experiment: CellTiter-Glo cell viability assay (example 57). Type of test: cell-based, human. As to conditions: Mus musculus, B16-F10; B16F10 (Melanoma); Cell Titer-Glo; 72 h.
The test system of test [18] is U87-MG. As to the kind of experiment: CellTiter 96 Aqueous One Solution (MTS) cell proliferation assay. To be noted: Homo sapiens, U-87 MG; U87-MG (Glioma); Cell Titer 96 Aqueous One Solution; 72 h; mean of seven independent triplicate assays. Type of test: cell-based. The method, then: The human glioblastoma cell line U87-MG was cultured in Minimum Essential Medium (Life Invitrogen, 31095029) supplemented with 10% fetal bovine serum (GIBCO, 10500-056) and 1 % penicillin-streptomycin (GIBCO, 15140-122). Flasks and plated used for the cell culture were coated with 25 μg/mL poly-D-lysine (Sigma, P7280).
Cell outgrowth was measured using a tetrazolium compound (3-[4,5-dimethylthiazol-2-yl]-5-[3-carboxymethoxyphenyl]-2-[4-sulfophenyl]-2H tetrazolium, inner salt [MTS]) from the CellTiter 96® Aqueous One Solution Cell Proliferation Assay (Promega, Ref G3580) and according to the manufacturer procedure.
5000 cells were plated onto 96-well plates in 100 μL of media per well and were allowed to grow overnight before the assay. Compounds were added at different concentrations to each well, and cell cultures were incubated for 72 h. Control compound was the diluent used for compound resuspension (H2O). After addition of 20 μL of CellTiter 96® Aqueous One Solution, absorbance at 492 nm was measured using a microplate reader Sunrise (Tecan). EC50 values were determined as the dose of compound required to reduce […] values to 50% of the signal obtained for untreated cell cultures. […] The experimental data are analyzed using a computer program, Graphpad Prism (GraphPad Software, Inc. La Jolla, Calif.).

In general, EC50 refers to the concentration needed to bring the measured effect to its halfway point. Read a high EC50 as a less potent agent. Take `CCN(CCO)CCCC(C)Nc1ccnc2cc(Cl)ccc12` (stereo not drawn) [HCQ, hydroxychloroquine]: the EC50 was 53 µM in test [1]; 41 µM in test [2]; 47 µM in test [3]; 47 µM in [4]; 57 µM in test [5]; 40 µM in test [6]. For the same compound, the EC50 amounted to 20 µM in [7]; 60 µM in test [8]; 20 µM in test [9]; 25 µM in test [10]; 50 µM in test [11]; 57 µM in [12]. The EC50 in test [13] amounted to 70 µM; in test [14], 20 µM; in [15], 60 µM; in test [16] it was 20 µM; in test [17] it was 20 µM; in test [18], 55 µM.
